# Like-named read-outs stand apart in the source and are kept apart here.
# How the values were obtained:
# [1] = test system: C. albicans; assay: Broth microdilution assay of synergistic lethality with 4 μg/mL FLC (recovery on drug-free YPD); assay type: cell-based, Candida albicans; details: with 4 μg/mL FLC; tested 100 μM to 0.1953 μM; 30 °C, 48 h
# [2] = Acute toxicity, Up-and-Down procedure (OECD 425), intraperitoneal; assay type: in vivo; details: C57BL/6, mouse, in vivo, ip, mice
# Method: Following a previously described methodology, the intraperitoneal route was employed in adult mice. In brief, the primary test involved a sequential administration of doses at intervals of at least 48 h, with one mouse being dosed at a time. Initially, a dose below LD50 was administered intraperitoneally to a mouse. If the mouse survived, the subsequent mouse would receive 1.3 times the initial dose. Conversely, if the mouse died, the subsequent mouse would receive a dose decreased by 1.3 times the initial dose. Each mouse was monitored for 48 h before determining the subsequent mouse’s dosage and administration. The experiment was terminated upon five “survive or die” reversals within a consecutive set of six animals tested. Subsequently, the LD50 and its corresponding confidence interval were computed based on the conditions observed in all mice after the experiment.
# [3] = test system: C. albicans; assay: Determination of MFC; assay type: cell-based, Candida albicans; details: as low as
# Method: The determination of MFC followed the previously described method. In brief, a tested drug at a concentration two times higher than the final concentration was diluted in a two-fold serial dilution manner across ten columns of the plate, with each well containing 100 μL of the drug. Subsequently, 100 μL of C. albicans cultures (1 × 10^4 cells/mL) were transferred into wells with and without any drugs as the control. Following incubation at 30 °C for 48 h, a 200 μL aliquot per well was removed and evenly spread on SDA plates, which were then incubated at 30 °C for 48 h. The MFC value was determined as the lowest drug concentration at which 99.9% of fungal colonies were eradicated compared to the control group.
# [4] = test system: C. albicans; assay: Dose–matrix titration assays (synergy, with YPD recovery plates); assay type: cell-based, Candida albicans; details: FLC ≤4 μg/mL; YPD, 30 °C, 48 h
# Method: The synergistic effects of drugs were conducted following the same procedure as the MIC assays. Specifically, 50 μL of drug A was distributed through two-fold serial dilution across seven plate columns. Subsequently, 50 μL of drug B was distributed in a two-fold serial dilution manner along seven rows of the plate. Furthermore, 100 μL of C. albicans cultures, adjusted to a density of 1 × 10^3 cells/mL, was dispensed into wells containing drugs and one control well devoid of any drugs. Before the 48 h OD600 readings, the plates were subjected to meticulous agitation to ensure the deposition of a representative 2 μL aliquot from each well onto newly prepared YPD recovery plates, thereby facilitating the evaluation of cellular recuperation following drug treatments. The recovery plates were subsequently incubated at a temperature of 30 °C for a duration ranging from 24 to 48 h, after which they were photographed. The experimental procedures were conducted in triplicate to ensure reliability and reproducibility.
# [5] = test system: C. albicans; assay: Spotting assay; assay type: cell-based, Candida albicans; details: 4 μM PIT; compared to wild-type strain and other heterozygous gene deletion mutants
# Method: The spotting assays were conducted following the previously described method. In summary, C. albicans cultures were adjusted to a cell density of 1 × 10^7 cells/mL using a hemacytometer. Subsequently, the cultures were serially diluted 1:10 and spotted onto a designated YPD solid medium containing specified concentrations of compounds. Following incubation at 30 °C for 48 h, photographs capturing the cell growth were taken, and the assays were replicated thrice.
# [6] = test system: C. albicans SC5314, SN152, cmp1-aid∆/cmp1-aid∆, and PADH1-UPC2 strains; assay: FLC disk diffusion assays (25 μg FLC disk, 5 μM adjuvant); assay type: cell-based, Candida albicans; details: SC5314, SN152, cmp1-aid∆/cmp1-aid∆, PADH1-UPC2
# Method: Yeast cells were cultured overnight at a temperature of 30 °C, and the resulting cell suspension was diluted to a concentration of 1 × 10^7 cells/mL in phosphate-buffered saline (PBS). At a concentration of 5 μM, the drugs were individually added to YPD plates for disk assays using a 25 μg FLC disk (6 mm, Liofilchem, Roseto degli Abruzzi, Italy). The plates were then incubated at 30 °C for 48 h. Subsequently, the disk was transferred to a drug-free YPD plate, which was incubated at 30 °C for 24 h and photographed.
# [7] = test system: C. albicans; assay: MIC assays (CLSI M27 broth microdilution); assay type: cell-based, Candida albicans; details: for MIC: Candida albicans
# Method: The MIC assays for C. albicans were conducted following the broth microdilution protocol outlined by the Clinical and Laboratory Standards Institute (CLSI) protocols (M27, 4th edition). In brief, FDA-approved drugs were diluted in 96-well plates at two-fold the final concentration, with 4 μg/mL FLC. This dilution was combined with the cell suspension with a concentration of 1 × 10^3 cells/mL. The plates were incubated at a temperature of 30 °C for 48 h without agitation.
# [8] = test system: ERG1, ERG11, and ERG251 genes; assay type: cell-based, Candida albicans; details: 2 μM PIT alone, 8 h
structure (smiles),measurement,setting,value
"O=C(O)C[C@H](O)C[C@H](O)/C=C/c1c(C2CC2)nc2ccccc2c1-c1ccc(F)cc1 [PIT, pitavastatin calcium]",synergistic lethal concentration (converts FLC from fungistatic to fungicidal),[1],≤ 6.25 µM
same,LD50 at 48 h,[2],104 mg/kg
same,concentration of PIT that renders FLC fungicidal,[3],1 µM
same,concentration that renders FLC fungicidal (no recovery on YPD solid medium),[4],≤ 3.125 µM
same,"susceptibility of HMG1/hmg1Δ, ERG8/erg8Δ and IDI1/idi1Δ mutants to PIT",[5],more susceptible
same,"effect on FLC tolerance in FLC disk diffusion, all four strains",[6],made FLC fungicidal
same,antifungal efficacy of PIT with exogenous ergosterol,"[7]; 100 μM exogenous ergosterol, SN152, MIC and spotting assays",negated
same,antifungal effects of PIT with exogenous mevalonate,"[7]; 100 μM exogenous mevalonate, SN152, MIC and spotting assays",mitigated
same,MIC,"[7]; SEC14/sec14△, YPD, read-out: MIC of PIT",2 µM
same,MIC,"[7]; SN152, YPD, read-out: MIC of PIT",2 µM
same,MIC,"[7]; age3△/age3△, YPD, read-out: MIC of PIT",2 µM
same,MIC,"[7]; control strain (wild-type), read-out: MIC of PIT",3.12 µg/mL
same,MIC,"[7]; hac1△/hac1△, YPD, read-out: MIC of PIT",2 µM
same,MIC,"[7]; hse1△/hse1△, YPD, read-out: MIC of PIT",2 µM
same,MIC,"[7]; ire1△/ire1△, YPD, read-out: MIC of PIT",2 µM
same,MIC,"[7]; mvb12△/mvb12△, YPD, read-out: MIC of PIT",2 µM
same,MIC,"[7]; read-out: MIC of PIT, erg11∆/erg11∆ null mutant",0.195 µg/mL
same,MIC,"[7]; snf7△/snf7△, YPD, read-out: MIC of PIT",2 µM
same,MIC,"[7]; vps20△/vps20△, YPD, read-out: MIC of PIT",2 µM
same,MIC,"[7]; vps22△/vps22△, YPD, read-out: MIC of PIT",2 µM
same,MIC,"[7]; vps23△/vps23△, YPD, read-out: MIC of PIT",2 µM
same,MIC,"[7]; vps28△/vps28△, YPD, read-out: MIC of PIT",2 µM
same,MIC,"[7]; vps36△/vps36△, YPD, read-out: MIC of PIT",2 µM
same,"mRNA expression level of ERG1 gene, upregulation",[8],2 fold
same,"mRNA expression level of ERG11 gene, upregulation",[8],2 fold
same,"mRNA expression level of ERG251 gene, upregulation",[8],2 fold
